From ChEMBL document CHEMBL5370541, “Targeting VPS34 in autophagy: An update on pharmacological small-molecule compounds” (Eur J Med Chem, 2023) come the findings set out here.

Experiment [1] deals with MCF7. Kind of experiment: Inhibition of starvation-induced autophagy in human MCF7 cells expressing eGFP-tagged LC3. Type of experiment: functional, cell-based.
Experiment [2] deals with T1, Phosphatidylinositol 3-kinase catalytic subunit type 3 (Homo sapiens, UniProt Q8NEB9). Kind of experiment: Inhibition of VPS34 (unknown origin) by ADP hunter plus assay.
T1 sequence (Q8NEB9 whole entry): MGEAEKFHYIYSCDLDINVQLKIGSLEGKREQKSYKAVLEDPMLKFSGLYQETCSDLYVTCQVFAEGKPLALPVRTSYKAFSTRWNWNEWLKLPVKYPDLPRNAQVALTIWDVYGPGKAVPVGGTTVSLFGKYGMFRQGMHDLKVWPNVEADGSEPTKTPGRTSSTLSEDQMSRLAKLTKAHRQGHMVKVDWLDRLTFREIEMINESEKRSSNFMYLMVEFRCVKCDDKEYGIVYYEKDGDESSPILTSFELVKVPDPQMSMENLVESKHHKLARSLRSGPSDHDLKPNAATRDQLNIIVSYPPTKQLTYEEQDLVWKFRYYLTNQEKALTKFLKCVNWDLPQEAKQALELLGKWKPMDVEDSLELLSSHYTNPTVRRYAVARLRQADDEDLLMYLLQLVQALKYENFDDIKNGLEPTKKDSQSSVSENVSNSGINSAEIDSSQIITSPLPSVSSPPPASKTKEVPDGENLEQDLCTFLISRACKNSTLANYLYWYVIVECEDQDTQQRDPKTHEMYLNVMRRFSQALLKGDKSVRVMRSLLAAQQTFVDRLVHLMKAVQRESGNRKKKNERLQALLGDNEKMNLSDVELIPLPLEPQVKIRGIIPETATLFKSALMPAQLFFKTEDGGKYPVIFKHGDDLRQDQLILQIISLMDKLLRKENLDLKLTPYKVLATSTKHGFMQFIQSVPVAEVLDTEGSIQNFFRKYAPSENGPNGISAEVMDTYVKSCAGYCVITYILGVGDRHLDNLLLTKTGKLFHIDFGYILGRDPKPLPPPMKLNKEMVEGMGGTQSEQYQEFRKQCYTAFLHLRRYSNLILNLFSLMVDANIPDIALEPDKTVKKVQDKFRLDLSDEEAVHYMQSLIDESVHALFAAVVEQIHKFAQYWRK
Experiment [3] deals with MCF7. Kind of experiment: Inhibition of rapamycin-induced autophagy in human MCF7 cells expressing eGFP-tagged LC3. Format: functional, cell-based.
Experiment [4] addresses T1, Phosphatidylinositol 3-kinase catalytic subunit type 3. Kind of experiment: Binding affinity to VPS34 (unknown origin) assessed as dissociation constant by KINOMEscan analysis.

Molecules are shown by their SMILES.

As for `COc1ccc2nccc([C@@H](O)[C@@H]3C[C@@H]4CCN3c3c4[nH]c4nc(Cl)ccc34)c2c1`, half-maximal inhibition in experiment [1] (IC50) required 8120 nM.
Consider `O=c1cc(N2CCOCC2)nc2n(Cc3cccc(Cl)c3Cl)c(C3CC3)nn12`, for which, in experiment [2], the IC50 (usually the concentration that gives 50% inhibition) was 9.12 nM.
As to `COc1ccc2nccc([C@@H](O)[C@@H]3C[C@@H]4CCN3c3c4[nH]c4nc(C)c(Br)cc34)c2c1`, the IC50 in experiment [1] worked out at 40 nM; in experiment [3], 8 nM.
As to `COc1ccc2nccc([C@@H](O)[C@@H]3C[C@@H]4CCN3c3c4[nH]c4nc(C(F)(F)F)ccc34)c2c1`, 5820 nM corresponded to half-maximal inhibition in experiment [1] (IC50).
With `O=S(=O)(c1ccc(-c2ccnc3[nH]ccc23)cc1)C1CCCC1`, the IC50 in experiment [2] was 1510 nM.
Consider `C[C@@H]1COCCN1c1cc(N2CCCC[C@@H]2C(F)(F)F)[nH]c(=O)c1`, for which, in experiment [4], the Kd (commonly the equilibrium constant for the complex coming apart) was 1 nM.
On to `O=C1Nc2ccc(-c3cccnc3)cc2C1=Cc1cc(Br)c(O)c(Br)c1`, for which, in experiment [2], the IC50 is 151 nM.
